Publication PMC5234776, “Study of the Antimicrobial Activity of Tilapia Piscidin 3 (TP3) and TP4 and Their Effects on Immune Functions in Hybrid Tilapia (Oreochromis spp.)” (PLoS ONE, 2017)
Like-named read-outs stand apart in the source and are kept apart here. Peptide text beside a SMILES is read from it.

Columns and labels:
tilapia = assay: Toxicity of peptide alone, tilapia survival; format: in vivo, tilapia (Oreochromis spp.); conditions: abdominal cavity, no infection, seven days (S2 Fig)
Experimental: The antimicrobial activities of TP3 and TP4 peptides were analyzed in tilapia infected with lethal amounts of bacteria. Different amounts of V. vulnificus were injected into the abdominal cavities of the fish, and survival rates were recorded as cumulative percentages (S1 Fig). To determine whether TP3 and TP4 had any toxic effects on the tilapia, we injected different doses of TP3 and TP4 (0.1, 1, 10, 20, 30, 40, or 50 μg/fish) into the abdominal cavity and recorded the cumulative survival percentage of the fish (S2 Fig). We also co-treated tilapia with different doses (0.1, 1, 10, 20 μg/fish) of TP3 or TP4 combined with 2x10^4 CFU of V. vulnificus to evaluate tilapia survival following treatment. […] After 14, 21, or 28 days following the first co-treatment with TP3, the tilapia that survived in the 20 μg/fish TP3 experimental group were injected with a second dose of 2x10^4 CFU of V. vulnificus, and the survival rates were measured for another seven days. […] In the co-treatment experiments, at 14, 21, or 28 days after the first co-treatment with TP4, the surviving tilapia in the 20 μg/fish TP4 experimental group received a second injection of 2x10^4 CFU of V. vulnificus, and the survival rates were measured for another seven days.
Supplementary file pone.0169678.s002.pdf: S2 Fig Determination of tilapia survival rates seven days after injection with different concentrations of TP3 or TP4. (a) The survival rates of tilapia injected with TP3 at a dose of 0.1 μg/fish, 1 μg/fish, or 10 μg/fish. (b) The percentage of tilapia surviving after injection with TP4 at 0.1 μg/fish, 1 μg/fish, or 10 μg/fish. (c) The percentage of tilapia surviving after injection with TP3 at 20 μg/fish, 30 μg/fish, 40 μg/fish, or 50 μg/fish. (d) The percentage of tilapia surviving after injection with TP4 at 20 μg/fish, 30 μg/fish, 40 μg/fish, or 50 μg/fish. The control group (control) was injected with PBS alone. (PDF) Click here for additional data file.

V. vulnificus = format: cell-based, Vibrio vulnificus
Experimental: To understand the effects of pH on TP3 or TP4, the reagents were dissolved in ddH2O, 1 M HCl or 1 M NaOH to obtain solutions with different pH values. For the temperature-dependent functional study, the TP3 or TP4 was added to a solution in a water bath (Basic life, model BL3002, Taiwan) and incubated for 60 minutes at different temperatures (40, 60, 80, or 100°C). To evaluate the effects of TP3 and TP4 on pepsin and trypsin function, each peptide was incubated for 10 or 30 minutes with different concentrations of pepsin or trypsin (0.1, 1, or 10 μg/ml), and we determined the MIC values after incubating these solutions with cells at 28°C for 720 minutes, according to a previously described MIC experimental protocol.

SMILES | percent survival after injection of peptide only (tilapia; 20 μg/fish) [%] | percent survival after injection of peptide only (tilapia; 30 μg/fish) [%] | percent survival after injection of peptide only (tilapia; 40 μg/fish) [%] | percent survival after injection of peptide only (tilapia; 50 μg/fish) [%] | decrease of antimicrobial activity (V. vulnificus; pepsin 0.1 μg/ml, 30 minutes) | decrease of antimicrobial activity (V. vulnificus; pepsin 1 μg/ml, 10 minutes) | decrease of antimicrobial activity (V. vulnificus; trypsin 1 μg/ml, 10 minutes) | decrease of antimicrobial activity (V. vulnificus; trypsin 1 μg/ml, 30 minutes) | decrease of antimicrobial activity (V. vulnificus; trypsin 10 μg/ml, 10 minutes)
CC[C@H](C)[C@H](NC(=O)[C@H](CC(C)C)NC(=O)[C@H](CO)NC(=O)[C@H](Cc1c[nH]cn1)NC(=O)[C@@H](NC(=O)[C@H](Cc1c[nH]cn1)NC(=O)[C@H](CCCCN)NC(=O)CNC(=O)[C@@H](NC(=O)[C@H](CO)NC(=O)[C@H](Cc1ccccc1)NC(=O)[C@H](CC(C)C)NC(=O)CNC(=O)CNC(=O)[C@@H](NC(=O)[C@@H](NC(=O)[C@H](Cc1c[nH]cn1)NC(=O)[C@H](Cc1c[nH]cn1)NC(=O)[C@@H](NC(=O)[C@@H](N)Cc1ccccc1)[C@@H](C)CC)[C@@H](C)CC)[C@@H](C)CC)C(C)C)[C@@H](C)CC)C(=O)N[C@@H](Cc1c[nH]cn1)C(=O)NCC(=O)N[C@@H](Cc1c[nH]cn1)C(=O)O [TP3, tilapia piscidin 3] (H-FIHHIIGGLFSVGKHIHSLIHGH-OH) | 86.7 | 73.3 | 66.7 | 56.7 | – | – | – | – | –
CC[C@H](C)[C@H](NC(=O)[C@H](C)NC(=O)[C@H](CCCCN)NC(=O)CNC(=O)[C@H](C)NC(=O)[C@H](CO)NC(=O)[C@H](Cc1ccccc1)NC(=O)[C@H](CC(C)C)NC(=O)CNC(=O)CNC(=O)[C@@H](NC(=O)[C@@H](NC(=O)[C@H](Cc1c[nH]cn1)NC(=O)[C@H](Cc1c[nH]cn1)NC(=O)[C@@H](NC(=O)[C@@H](N)Cc1ccccc1)[C@@H](C)CC)[C@@H](C)CC)[C@@H](C)CC)C(=O)N[C@@H](Cc1c[nH]cn1)C(=O)N[C@@H](CCCNC(=N)N)C(=O)N[C@@H](CC(C)C)C(=O)N[C@H](C(=O)N[C@@H](CCCNC(=N)N)C(=O)N[C@@H](CCCNC(=N)N)C(=O)N[C@@H](CCCNC(=N)N)C(=O)N[C@@H](CCCNC(=N)N)C(=O)N[C@@H](CCCNC(=N)N)C(=O)O)[C@@H](C)CC [TP4, tilapia piscidin 4] (H-FIHHIIGGLFSAGKAIHRLIRRRRR-OH) | – | – | – | – | eight-fold | two-fold | two-fold | four-fold | eight-fold
